Counter-ions that a name gives are not always drawn. Like-named read-outs stand apart in the source and are kept apart here.

We go through four compounds from patent US20240226000A9, “TRANSDERMAL PENETRANT FORMULATIONS FOR ADMINISTRATION OF MEDICAMENTS” (Dyve Biosciences, Inc., priority 2021, published 2024).

The nature of data set [1]: Solubility of actives in aqueous medium / percent solution. An excerpt: (§1) In this example, mice were transdernally treated with formulations of the present disclosure comprising essentially insoluble class 2 or class 4 molecules.
A short description of data set [2]: Transdermal delivery of aqueous insoluble molecules, bioavailability in mice (Example 32).
Excerpt: as §1

[3] abbreviates: active in the transdermal formulation.
Setting [4] is: mice transdermally treated with a formulation comprising the molecule.
The mark [5] stands for this setting: mouse, in vivo, topical or ocular.

As to `CCOc1cc2ncc(C#N)c(Nc3ccc(OCc4ccccn4)c(Cl)c3)c2cc1NC(=O)/C=C/CN(C)C` [Free Base Neratinib], the “Estimated Active % in Solution” value in data set [1] (setting [3]) is listed as less than 1%. Besides, the “bioavailability after transdermal delivery” value (“bioavailability” for short) in data set [2] (setting [4]) is on record as “high or relatively high bioavailability”.

One may read the AUC(0-inf) as the area under the concentration-time curve extrapolated to infinity. Read a high AUC(0-inf) as high exposure. A word on the Cmax: it is the maximum level reached in the sampled fluid or tissue. Broadly, the Tmax is the time from dosing to the highest level. A word on the half-life: it is the time needed for the level to fall by half in the phase considered. A high value points to slow decline. `CCCc1nn(C)c2c(=O)[nH]c(-c3cc(S(=O)(=O)N4CCN(C)CC4)ccc3OCC)nc12` [Sildenafil Citrate]: in data set [1], the “% Solution (Relative Dosing)” value is less than 1%, the “Estimated Active % in Solution” value was less than 1% and the “solubility in aqueous medium” value is recorded as no more than 1%. Also, in data set [2] (setting [5]), the AUC(0-inf) came out at 9660 ng·h/mL, the Cmax was determined as 4390 ng/mL, the Tmax stood at 30 min and the “bioavailability” value is given as “high or relatively high bioavailability”. In data set [2] (setting [5]), this compound had a half-life of 56.4 min.

Broadly, the AUC(0-t) is the area under the concentration-time curve up to a stated or last time point. Low values mean less exposure, high ones more exposure. Take `COc1ccc(-n2nc(C(N)=O)c3c2C(=O)N(c2ccc(N4CCCCC4=O)cc2)CC3)cc1` [apixaban]: the “Estimated Active % in Solution” value in data set [1] is reported as less than 1%. Also, in data set [2] (setting [5]), the AUC(0-t) worked out at 3930 ng·h/mL, the Cmax is 1880 ng/mL, the Tmax is 30 min and the “bioavailability” value is on record as “improved bioavailability”.

Take Neratinib Maleate: in data set [1] (setting [3]), the “Estimated Active % in Solution” value was less than 1%. Besides, the “% Solution (Relative Dosing)” value in data set [1] (share of the active in solution, the cell beside it prints the amount in the formulation (3.5, 4.23, 3.6, 8, 15), not a dose range) is on record as less than 1%. The “bioavailability” value in data set [2] (setting [4]) is given as “high or relatively high bioavailability”.
